Measurements from US20260374754A1, “N-((ISOQUINOLIN-6-YL)METHYL)-1H-PYRAZOLE-4-CARBOXAMIDE DERIVATIVES AS PLASMA KALLIKREIN INHIBITORS FOR THE TREATMENT OF HEREDITARY ANGIODEMA” (Takeda Pharmaceutical Company Limited, priority 2022, published 2026).
Structures can show the parent of a compound that is named as a salt.

Target: human activated kallikrein enzyme (Homo sapiens, UniProt P03952)
Assay: Inhibition of human activated plasma kallikrein, fluorogenic PFR-AMC substrate, 500 pM enzyme format
Assay type: biochemical
Details: 500 pM activated kallikrein; 300 μM PFR-AMC; 30 min preincubation; 10 min room temperature; pH 7.5; read-out: Primary Dose Response Assay: Average EC50
Summary of the method: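 Using fluorogenic PFR-AMC at 300 μM, cleavage by 500 pM human activated kallikrein ran 10 min at room temperature, read at 460 nm emission (380 nm excitation). Enzyme and compounds were first preincubated 30 min in 20 mM Tris pH 7.5, 150 mM NaCl, 1 mM EDTA, 0.1% PEG-400, 0.1% Triton X-100.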

Chain of human activated kallikrein enzyme (P03952 391-638 limits assumed): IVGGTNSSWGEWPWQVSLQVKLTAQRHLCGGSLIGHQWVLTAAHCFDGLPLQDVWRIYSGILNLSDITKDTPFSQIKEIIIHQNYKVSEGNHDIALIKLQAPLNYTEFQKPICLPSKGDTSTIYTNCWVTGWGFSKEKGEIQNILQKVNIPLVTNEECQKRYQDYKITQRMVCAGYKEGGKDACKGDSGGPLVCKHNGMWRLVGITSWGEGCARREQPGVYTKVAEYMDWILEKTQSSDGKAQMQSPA
Chain of human activated kallikrein enzyme (P03952 20-390 partner limits assumed): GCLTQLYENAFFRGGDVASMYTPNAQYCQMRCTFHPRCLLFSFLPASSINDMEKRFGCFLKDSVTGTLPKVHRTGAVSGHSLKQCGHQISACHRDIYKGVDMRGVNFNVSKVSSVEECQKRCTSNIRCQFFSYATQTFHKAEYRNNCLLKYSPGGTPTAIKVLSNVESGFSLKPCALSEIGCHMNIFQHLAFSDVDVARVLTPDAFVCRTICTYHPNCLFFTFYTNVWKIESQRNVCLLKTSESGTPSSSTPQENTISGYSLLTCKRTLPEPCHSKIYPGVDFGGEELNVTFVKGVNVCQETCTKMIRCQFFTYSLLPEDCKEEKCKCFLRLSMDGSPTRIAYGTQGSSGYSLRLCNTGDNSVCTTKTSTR

Structure (SMILES) | EC50 [nM]
Cc1cc2c(N)nccc2c(C)c1CNC(=O)c1cnn(Cc2ccc(Oc3cccn(C)c3=O)cc2)c1 [Example 18, N-((1-amino-5,7-dimethylisoquinolin-6-yl)methyl)-1-(4-((1-methyl-2-oxo-1,2-dihydropyridin-3-yl)oxy)benzyl)-1H-pyrazole-4-carboxamide] | < 1
Cc1cc2c(N)nccc2c(C)c1CNc1cc(OCc2cnn(-c3ccccc3)c2)cnn1 [Example 442, 5,7-dimethyl-6-(((5-((1-phenyl-1H-pyrazol-4-yl)methoxy)pyridazin-3-yl)amino)methyl)isoquinolin-1-amine] | 1 to 10
Cc1cc2c(N)nccc2c(C)c1CNc1nccc2c1cnn2Cc1cn2cc(C3CC3)cnc2n1 [Example 393, 6-(((1-((6-cyclopropylimidazo[1,2-a]pyrimidin-2-yl)methyl)-1H-pyrazolo[4,3-c]pyridin-4-yl)amino)methyl)-5,7-dimethylisoquinolin-1-amine] | 100 to 1000
Cc1cc2c(N)nccc2c(C)c1CNc1cc(OCc2ccc3ncc(C(F)(F)F)cc3c2)cnn1 [Example 423, 5,7-dimethyl-6-(((5-((3-(trifluoromethyl)quinolin-6-yl)methoxy)pyridazin-3-yl)amino)methyl)isoquinolin-1-amine] | < 1
Cc1cc2c(N)nccc2c(C)c1CNc1cc(NCc2ccc(OCC(=O)N3CCC3)cc2)ncn1 [Example 347, 2-(4-(((6-(((1-amino-5,7-dimethylisoquinolin-6-yl)methyl)amino)pyrimidin-4-yl)amino)methyl)phenoxy)-1-(azetidin-1-yl)ethan-1-one, formic acid salt] | < 1
Cc1cc2c(N)nccc2c(C)c1CNC(=O)c1cnn(Cc2ccc(Cc3ncccn3)cc2)c1 [Example 168, N-((1-amino-5,7-dimethylisoquinolin-6-yl)methyl)-1-(4-(pyrimidin-2-ylmethyl)benzyl)-1H-pyrazole-4-carboxamide] | 1 to 10
Cc1cc2c(N)nccc2c(C)c1CNC(=O)c1cnn(Cc2ccccc2C#N)c1 [Example 32, N-((1-amino-5,7-dimethylisoquinolin-6-yl)methyl)-1-(2-cyanobenzyl)-1H-pyrazole-4-carboxamide] | 100 to 1000
Cc1cc2c(N)nccc2c(C)c1CNc1cc(OCc2nc3ccc(C4CC4)cn3n2)nc(CCC(=O)O)n1 [Example 295, 3-(4-(((1-amino-5,7-dimethylisoquinolin-6-yl)methyl)amino)-6-((6-cyclopropyl-[1,2,4]triazolo[1,5-a]pyridin-2-yl)methoxy)pyrimidin-2-yl)propanoic acid] | 1 to 10
Cc1cc2c(N)nccc2c(C)c1CNC(=O)c1cn(Cc2ccc(CC(=O)N3CC4CC4C3)cc2)nc1F (stereo not shown) [Example I-477, 1-(4-(2-(3-azabicyclo[3.1.0]hexan-3-yl)-2-oxoethyl)benzyl)-N-((1-amino-5,7-dimethylisoquinolin-6-yl)methyl)-3-fluoro-1H-pyrazole-4-carboxamide] | < 1
Cc1ccc2cc(Cn3cc(C(=O)NCc4c(C)cc5c(N)nccc5c4C)cn3)ccc2n1 [Example 64, N-((1-amino-5,7-dimethylisoquinolin-6-yl)methyl)-1-((2-methylquinolin-6-yl)methyl)-1H-pyrazole-4-carboxamide] | < 1
COCc1c(C(=O)NCc2c(C)cc3c(N)nccc3c2C)cnn1Cc1ccc(Cn2cccn2)cc1 [Example 188, 1-(4-((1H-pyrazol-1-yl)methyl)benzyl)-N-((1-amino-5,7-dimethylisoquinolin-6-yl)methyl)-5-(methoxymethyl)-1H-pyrazole-4-carboxamide] | 10 to 100
Cc1cc2c(N)nccc2c(C)c1CNC(=O)c1cnn(Cc2cnc3ccc(Br)cc3c2)c1 [Example 70, N-((1-amino-5,7-dimethylisoquinolin-6-yl)methyl)-1-((6-bromoquinolin-3-yl)methyl)-1H-pyrazole-4-carboxamide] | < 1
Cc1cc2c(N)nccc2c(C)c1CNC(=O)c1cnn(Cc2ccc3c(cnn3C)c2)c1 [Example 52, N-((1-amino-5,7-dimethylisoquinolin-6-yl)methyl)-1-((1-methyl-1H-indazol-5-yl)methyl)-1H-pyrazole-4-carboxamide] | 1 to 10
Cc1cc2c(N)nccc2c(C)c1CNc1cc(NCc2ccc(Cn3cccn3)cc2C(F)(F)F)ncn1 [Example 380, N^4-(4-((1H-pyrazol-1-yl)methyl)-2-(trifluoromethyl)benzyl)-N^6-((1-amino-5,7-dimethylisoquinolin-6-yl)methyl)pyrimidine-4,6-diamine] | 1 to 10
Cc1cc2c(N)nccc2c(C)c1CNc1cc(NCc2ccc(OCC(=O)N3CC4CC4C3)cc2)ncn1 (stereo not shown) [Example 344, 2-(4-(((6-(((1-amino-5,7-dimethylisoquinolin-6-yl)methyl)amino)pyrimidin-4-yl)amino)methyl)phenoxy)-1-(3-azabicyclo[3.1.0]hexan-3-yl)ethan-1-one, formic acid salt] | < 1
Cc1cc2c(N)nccc2c(C)c1CNc1cc(OCc2ccc(Cn3cccn3)cc2)ccn1 [Example I-454, 6-(((4-((4-((1H-pyrazol-1-yl)methyl)benzyl)oxy)pyridin-2-yl)amino)methyl)-5,7-dimethylisoquinolin-1-amine] | 1 to 10

Structure (SMILES) | EC50 [nM]
Cc1cc(Cn2cc(C(=O)NCc3c(C)cc4c(N)nccc4c3C)cn2)ccc1C1CC1 [Example 2, N-((1-amino-5,7-dimethylisoquinolin-6-yl)methyl)-1-(4-cyclopropyl-3-methylbenzyl)-1H-pyrazole-4-carboxamide] | 1 to 10
Cc1cc2c(N)nccc2c(C)c1CNc1cc(OCc2cccc(-n3ccccc3=O)c2)ncn1 [Example 370, 1-(3-(((6-(((1-amino-5,7-dimethylisoquinolin-6-yl)methyl)amino)pyrimidin-4-yl)oxy)methyl)phenyl)pyridin-2(1H)-one] | 100 to 1000
COCc1nn(Cc2ccc(Cn3cccn3)cc2)cc1C(=O)NCc1c(C)cc2c(N)nccc2c1C [Example 187, 1-(4-((1H-pyrazol-1-yl)methyl)benzyl)-N-((1-amino-5,7-dimethylisoquinolin-6-yl)methyl)-3-(methoxymethyl)-1H-pyrazole-4-carboxamide] | < 1
Cc1cc2c(N)nccc2c(C)c1CNc1cc(OCc2ccccc2)ncn1 [Example 449, 6-(((6-(benzyloxy)pyrimidin-4-yl)amino)methyl)-5,7-dimethylisoquinolin-1-amine] | > 1000
CCN(CC)C(=O)Cc1ccc(Cn2cc(C(=O)NCc3c(C)cc4c(N)nccc4c3C)cn2)cc1 [Example 226, N-((1-amino-5,7-dimethylisoquinolin-6-yl)methyl)-1-(4-(2-(diethylamino)-2-oxoethyl)benzyl)-1H-pyrazole-4-carboxamide] | < 1
CCOC(=O)Nc1nccc2c(C)c(CNc3cc(NCc4ccc(Cn5ccccc5=O)cc4)ncn3)c(C)cc12 [Example 249, ethyl (5,7-dimethyl-6-(((6-((4-((2-oxopyridin-1(2H)-yl)methyl)benzyl)amino)pyrimidin-4-yl)amino)methyl)isoquinolin-1-yl)carbamate] | 10 to 100
Cc1cc2c(N)nccc2c(C)c1CNc1cc(NCc2cn3cc(C#N)ccc3n2)ncn1 [Example 332, 2-(((6-(((1-amino-5,7-dimethylisoquinolin-6-yl)methyl)amino)pyrimidin-4-yl)amino)methyl)imidazo[1,2-a]pyridine-6-carbonitrile] | 1 to 10
Cc1cc2c(N)nccc2c(C)c1CNC(=O)c1cnn(Cc2cc3c(Cl)cccc3s2)c1 [Example 62, N-((1-amino-5,7-dimethylisoquinolin-6-yl)methyl)-1-((4-chlorobenzo[b]thiophen-2-yl)methyl)-1H-pyrazole-4-carboxamide] | 1 to 10
Cc1cc2c(N)nccc2c(C)c1CNc1cc(NCc2ccc3c(-c4ccccn4)cccc3c2)ncn1 [Example 241, N4-((1-amino-5,7-dimethylisoquinolin-6-yl)methyl)-N6-((5-(pyridin-2-yl)naphthalen-2-yl)methyl)pyrimidine-4,6-diamine] | 1 to 10
Cc1cc2c(N)nccc2c(C)c1CNC(=O)c1cnn(Cc2cn3c(Cl)c(C4CC4)ccc3n2)c1 [Example 148, N-((1-amino-5,7-dimethylisoquinolin-6-yl)methyl)-1-((5-chloro-6-cyclopropylimidazo[1,2-a]pyridin-2-yl)methyl)-1H-pyrazole-4-carboxamide] | < 1
Cc1cc2c(N)nccc2c(C)c1CNc1cc(NCc2ccc(Cc3cc[nH]n3)cc2)ncn1 [Example 358, N^4-(4-((1H-pyrazol-3-yl)methyl)benzyl)-N^6-((1-amino-5,7-dimethylisoquinolin-6-yl)methyl)pyrimidine-4,6-diamine] | 1 to 10
Cc1cc(Cn2cc(C(=O)NCc3c(C)cc4c(N)nccc4c3C)cn2)cc(C)c1Cc1ccccn1 [Example 169, N-((1-amino-5,7-dimethylisoquinolin-6-yl)methyl)-1-(3,5-dimethyl-4-(pyridin-2-ylmethyl)benzyl)-1H-pyrazole-4-carboxamide] | < 1
Cc1cc2c(N)nccc2c(C)c1CNC(=O)c1cnn(Cc2cc3cc(Br)ccc3o2)c1 [Example 50, N-((1-amino-5,7-dimethylisoquinolin-6-yl)methyl)-1-((5-bromobenzofuran-2-yl)methyl)-1H-pyrazole-4-carboxamide] | 1 to 10
Cc1cc2c(N)nccc2c(C)c1CNc1cc(NCc2ccc(Cc3ncnn3C)cc2)ncn1 [Example 342, N^4-((1-amino-5,7-dimethylisoquinolin-6-yl)methyl)-N^6-(4-((1-methyl-1H-1,2,4-triazol-5-yl)methyl)benzyl)pyrimidine-4,6-diamine] | < 1
Cc1cc2c(N)nccc2c(C)c1CNc1nccn2cc(Cc3ccc4ccccc4c3)nc12 [Example 525, 5,7-dimethyl-6-(((2-(naphthalen-2-ylmethyl)imidazo[1,2-a]pyrazin-8-yl)amino)methyl)isoquinolin-1-amine] | 100 to 1000
